# Test results as given in patent US20040186166A1, “Cannabinoid analogs as peroxisome proliferator activated nuclear receptor gamma activators” (priority 2002, published 2004).
# How the values were obtained:
# [1] = system: PPARγ2 and aP2 gene expression in 3T3 L1 cells; assay: RT-PCR of adipocyte-specific genes; type: cell-based; settings: versus vehicle control
# Protocol: The adipocyte differentiation assay was performed as described by Mukherjee et. al. (Mol Endocrinol 14: 1425-33, 2000). The 3T3 L1 cells (American Type Culture Collection) were cultured in DMEM media supplemented with 10% calf serum. Two days after reaching confluence, cells were treated with AJA, GW347845, or vehicle (0.1% DMSO) in the presence of 10 μg/ml insulin every other day. After 10 days of treatment with AJA or 7 days with GW347845 at confluence, cells were fixed and stained with Oil Red O (Sigma). For RT-PCR, total cellular RNAs were isolated by TRIzol (Gibco). Reverse transcriptase polymerase chain reaction (RT-PCR) was performed using the superscript first-strand synthesis kit (Invitrogen). After first-strand cDNA was synthesized by use of oligo (dT), cDNA was amplified by PCR. The forward primers and reverse primers used in the amplifications were 5′-GCTGTTATGGGTGAAACTCTGGGAG-3′(SEQ ID NO: 1), and 5′-CTTCATGAGGCCTGTTGTAGAGC-3′ (SEQ ID NO:2), for PPARγ2, 5′-GAGCAAATGGAGTTCCCAGATG-3′ (SEQ ID NO: 3), and 5′-GCAAACAATGGGAATAGTTCACAGTAG-3′ (SEQ ID NO: 4), for aP2, and 5′-GACCACAGTCCATGCCATCAC-3′(SEQ ID NO: 5), and 5′-CATACCAGGAAATGAGCTGAC-3′ (SEQ ID NO: 6), for GAPDH. PCR amplifications were performed in 50 μL volume with Taq DNA polymerase for 30 cycles.
# To confirm that AJA and GW347845 induce 3T3 L1 cell differentiation into adipocytes, the expression levels of the adipocyte-specific genes PPARγ2 and aP2 were measured by RT-PCR. Total RNA was isolated after AJA or GW347845 treatment, and compared with vehicle control. Reverse transcription was conducted and the relative amounts of PPARγ2 and aP2 transcripts were measured by PCR reactions using primer sets specific to each gene. PCR products were analyzed on 1% agarose gel and stained with Ethidium Bromide. […] As a control for the induction specificity and the PCR amplification reaction, the expression levels of GADPH were measured in all samples, and found not affected by any treatment.
# [2] = adjuvant-induced poly-arthritis, rats; cited from earlier work
structure (smiles),measurement,setting,value
"CCCCCCC(C)(C)c1cc(O)c2c(c1)OC(C)(C)[C@@H]1CC=C(C(=O)O)C[C@@H]21 [AJA, dimethylheptyl-THC-11-oic acid]",PPARγ2 gene expression,[1],enhanced PPARγ2 and aP2 gene expression significantly
same,aP2 gene expression,[1],enhanced PPARγ2 and aP2 gene expression significantly
same,chronic joint inflammation,[2],suppress
